Source: paper PMC9971260 (Scientific Reports, 2023)
Counter-ions that a name gives are not always drawn.

How the values were obtained:
[1] = design: method as in earlier work; details: cited from earlier work
[2] = mouse, in vivo, 50 mg/kg; cited from earlier work
[3] = tested on: carrageenan-induced hyperalgesia; assay: post-treatment of carrageenan-induced hyperalgesia; assay type: in vivo, rat; details: rats
Protocol: The PWL of untreated rats from the pre-treatment carrageenan study were used as a negative control in this experiment, as well. […] One hind paw was randomly selected to be the observed paw for the entirety of the experiment. Prior to administration of a treatment, the baseline (-23 h) PWL was assessed as described above.
Twenty-three hours after administration of carrageenan, PWL was assessed (23 h) to confirm induction of hyperalgesia, and to establish the PWL prior to treatment. […] PWL was assessed relative to administration of treatment ([…], 48, 72, and 96 h), and two PWL measurements were taken at each time point for each rat.

[4] = tested on: carrageenan-induced paw edema and hyperalgesia; assay: pre-treatment of carrageenan-induced paw edema and hyperalgesia; details: rats
COX-1 = details: read-out: IC50 against COX-1; cited from earlier work
postoperative pain [5] = assay: post-treatment of postoperative pain (incisional model); assay type: in vivo, mouse; details: mice, 5 mg/kg SC daily Days 1 to 7
Protocol: Thirty-one (31) mice were randomly assigned to one of four treatment groups: vehicle (5 μL/g, SC) (n = 8), UK4b (20 mg/kg, SC) (n = 7), UK4b (10 mg/kg, SC) (n = 8), and morphine (5 mg/kg, SC) (n = 8). This experiment took place over 14 days. […] Similarly, four days before surgery, the animals began acclimation for one hour per day to the mechanical sensitization (allodynia) apparatus before assessment. Mechanical sensitization was measured with a series of 8 von Frey fiber filaments (0.008 g (1.65); 0.02 g (2.36); 0.07 g (2.83); 0.16 g (3.22); 0.4 g (3.61); 1.0 g (4.08); 2.0 g (4.31); 6.0 g (4.74); Stoelting, Wood Dale, IL) using a modified up-down method. For the algorithm, each filament is applied to the plantar surface of the hind paw for five times. If the mouse retracts that hind paw at least three times, that is considered a positive response to the filament, and the next applied filament would be weaker than the last. If the animal retracts the hind paw fewer than three times, this is a negative response, and the next stronger filament is applied. […] Two hours after surgery was complete, PWL was assessed, followed by measurement of mechanical sensitization threshold. […] On Day 9, 48 h after the final treatment was administered on Day 7, PWL and mechanical sensitization threshold were assessed to follow-up with the animals after treatment ceased. […]

postoperative pain [6] = assay: pre- and post-treatment of postoperative pain (incisional model); assay type: in vivo, mouse; details: mice, pretreatment 5 mg/kg SC 2 h before surgery
Protocol: Twenty-eight (28) mice were randomly assigned to one of four treatment groups: vehicle (5 μL/g, SC) (n = 8), UK4b (20 mg/kg, SC) (n = 7), UK4b (10 mg/kg, SC) (n = 7), and morphine (5 mg/kg, SC) (n = 6). This experiment took place over 14 days. Animals underwent the same acclimation and baseline measurement for PWL and mechanical sensitization threshold as described in the section above on Days -4 to -1. On Day 0, surgery was performed as described above, but each animal received their first treatment two hours prior to surgery (-2 h). Two hours after surgery was complete, PWL was assessed, followed by measurement of mechanical sensitization threshold. Treatment continued once daily from Days 1 through 7. Two hours after drug treatment, PWL and mechanical sensitization threshold are measured. On Day 9, 48 h after the final treatment was administered on Day 7, PWL and mechanical threshold are assessed to follow-up with the animals after treatment ceases. The PWL (seconds) was graphed relative to time (days since surgery). Mechanical sensitization thresholds were graphed as 50% threshold (grams) versus time (days since surgery).

COX-2 = details: cited from earlier work

CCCCC[C@H](O)/C=C/[C@H]1[C@H](O)CC(=O)[C@@H]1C/C=C\CCCC(=O)O [PGE2, prostaglandin E2]
plasma half-life [1]: 2.5 to 5 min

Cc1ccc(-c2cc(C(F)(F)F)nn2-c2ccc(S(N)(=O)=O)cc2)cc1 [celecoxib]
stomach tissue damage [2]: caused stomach tissue damage in all mice

NCC1(CC(=O)O)CCCCC1 [gabapentin]
carrageenan-induced hyperalgesia (PWL), post-treatment ([3]; 100 mg/kg IP 23 h after carrageenan): significantly relieved the pain | carrageenan-induced hyperalgesia (PWL) ([4]; pretreatment 100 mg/kg IP 1 h or 4 h before carrageenan): similarly relieved the hyperalgesia, but 100 mg/kg gabapentin was not as effective as 10 mg/kg UK4b

CN1CC[C@]23c4c5ccc(O)c4O[C@H]2[C@@H](O)C=C[C@H]3[C@H]1C5 [morphine]
postoperative allodynia (50% mechanical threshold) (postoperative pain [5]): significantly attenuated | postoperative hyperalgesia (PWL) (postoperative pain [5]): significantly attenuated | postoperative allodynia (50% mechanical threshold) on Day 0 (postoperative pain [6]): did not significantly attenuate the postoperative allodynia | postoperative hyperalgesia (PWL) on Day 0 (postoperative pain [6]): significantly attenuating the postoperative hyperalgesia

COc1ccc2c3c1O[C@H]1C(=O)CC[C@@]4(O)[C@@H](C2)N(C)CC[C@]314 [oxycodone, Oxycodone hydrochloride]
carrageenan-induced hyperalgesia (PWL), post-treatment ([3]; 5 mg/kg IP 23 h after carrageenan): significantly relieved the pain | carrageenan-induced hyperalgesia (PWL) ([4]; pretreatment 5 mg/kg IP, at and after 23 h): still significant pain | carrageenan-induced hyperalgesia (PWL) ([4]; pretreatment 5 mg/kg IP, within six hours after carrageenan injection): effectively relieved the pain

CS(=O)(=O)c1ccc(C2=C(c3ccccc3)C(=O)OC2)cc1 [rofecoxib]
IC50 against COX-2 (in words) (COX-2): low-nanomolar
